Data as given in patent publication US20170166558A1, “O-GLCNAC TRANSFERASE (OGT) INHIBITORS AND USES THEREOF” (President and Fellows of Harvard College, priority 2014, published 2017).

How the values were obtained:
[1] = test system: CHO, HEK-293, HeLa and D283-Med cells; assay: Immunoblotting of global O-GlcNAcylation in various mammalian cell types; format: cell-based; settings: 50 μM, 24 hours
Description: (§1) In vivo inhibition of glycosylation: For all immunoblotting experiments, CHO-K1 (CHO) cells were grown in F12-K media supplemented with 10% FBS and antibiotics at 37° C. in a 5% CO2 incubator. Cells were treated by adding indicated inhibitor in DMSO vehicle (0.5% final vehicle concentration) upon reaching 70% confluence. After indicated treatment length, cells were harvested by aspirating growth media and washing with ice cold 1× PBS. Cells were subsequently lysed in boiling 1% SDS/20 mM HEPES 7.9. After cooling to room temperature, 1 mM PMSF, 10 μM PUGNAC, 10 μM TMG and 1× Complete protease inhibitor cocktail were added to the solution. The mixture was sonicated and then subjected to a 5 minute incubation at 95° C. The samples were centrifuged for 15 minutes at 20,000×g and the supernatant was collected and the total protein was measured by BCA assay (BIO-RAD).
The sample was separated by SDS-PAGE (Bio-Rad 4-15%, Cat: 345-0028), transferred to a nitrocellulose membrane (iBlot, Invitrogen) and probed with the indicated antibody. Tyipcally, membranes were blocked with 4% BSA in 1× TBS+0.04% tween-20 for 1 hour before incubating with antibody (typically diluted 1:1000 in 4% BSA inlx TBS+0.04% tween-20) overnight at 4° C. […]

[2] = test system: OGT in CHO cells; assay: Markers of OGT inhibition in CHO cells (Nup62 mass shift, OGA levels, H2B-S112 O-GlcNAc); format: cell-based, Chinese hamster
Description: as §1
(§2) The sample was separated by SDS-PAGE (Bio-Rad 4-15%, Cat: 345-0028), transferred to a nitrocellulose membrane (iBlot, Invitrogen) and probed with the indicated antibody. Tyipcally, membranes were blocked with 4% BSA in 1× TBS+0.04% tween-20 for 1 hour before incubating with antibody (typically diluted 1:1000 in 4% BSA inlx TBS+0.04% tween-20) overnight at 4° C. Membranes were then washed three times with 1× TBS+0.04% tween-20 and incubated with secondary antibody (typically diluted 1:5000 in 4% BSA in 1× TBS+0.04% tween-20) for 1 hour at room temperature. Lastly, membranes were washed 3× with 1× TBS+0.04% tween-20 and imaged with ECL. D283-Med cells were treated as above but grown in F12-K media supplemented with 10% FBS and antibiotics. HEK, HeLa and LNCaP cells were treated as above but grown in RPMI media supplemented with 10% FBS and antibiotics.

[3] = test system: cell surface glycans of CHO cells; assay: Lectin blots of cell surface glycans of CHO cells; format: cell-based, Chinese hamster; settings: 50 μM, 24 hours
Description: Lectin blots were performed with the CHO-K1 cell lysate as prepared above. […] The biotin label on the lectins was visualized with incubation with Streptavidin-HRP (Pierce) followed by ECL detection and imaging.

[4] = test system: OGT in CHO cells; assay: Immunoblotting of global O-GlcNAcylation (RL2) in CHO cells; format: cell-based, Chinese hamster
Description: as §1, §2

SMILES: CC(=O)N[C@@H]1[C@@H](OC(C)=O)[C@H](OC(C)=O)[C@@H](COC(C)=O)S[C@@H]1OC(C)=O [Ac4-5SGlcNAc, reference compound]
- Global O-GlcNAc levels in four cell lines [1]: reduce global O-GlcNAc levels in all four lines examined
- Cellular OGA levels [2]: reduced cellular OGA
- Changes in bands detected by ConA, PHA-L, ECL, GSL-I, PNA or DBA [3]: minimal changes
- Changes in glycans detected by Jacalin, PHA-E and LCA [3]: dramatic changes
- Onset of reduction of global O-GlcNAcylation ([4]; 50 μM, 8-hour time course): only at four hours
- Effect on global O-GlcNAcylation ([4]; 24 hours, up to 50 μM): reduced global O-GlcNAcylation to a greater extent than OSMI-1
